Reference: ChEMBL document CHEMBL3044779, “The action of herbicides on fatty acid biosynthesis and elongation in barley and cucumber” (Pest Manag Sci, 2010)
Calls of active or inactive are those of the source. The calls are words filed in the database; no cut-off is given here.

Columns and labels:
Hordeum vulgare [1] = test: Inhibition of fatty acid synthesis in Hordeum vulgare (barley) using [14C]malonate assessed as inhibition of [14C]-labeled 22C fatty acid production at 200 uM after 3 hr by liquid scintillation counting; type: functional, organism-based
Hordeum vulgare [2] = test: Inhibition of fatty acid synthesis in Hordeum vulgare (barley) using [14C]malonate assessed as inhibition of [14C]-labeled 20C fatty acid production at 200 uM after 3 hr by liquid scintillation counting; type: functional, organism-based
Cucumis sativus [3] = test: Inhibition of fatty acid synthesis in Cucumis sativus (cucumber) using [14C]malonate assessed as inhibition of [14C]-labeled 24C fatty acid production at 200 uM after 3 hr by liquid scintillation counting; type: functional, organism-based
Cucumis sativus [4] = test: Inhibition of fatty acid synthesis in Cucumis sativus (cucumber) using [14C]acetate assessed as [14C]-labeled 24C fatty acid level at 200 uM after 3 hr by liquid scintillation counting (reference value: 6.5 +/- 1%); type: functional; set-up: scale not given: the % may be the effect or the level left
Cucumis sativus [5] = test: Inhibition of fatty acid synthesis in Cucumis sativus (cucumber) using [14C]malonate assessed as inhibition of [14C]-labeled 18C fatty acid production at 200 uM after 3 hr by liquid scintillation counting; type: functional, organism-based
Hordeum vulgare [6] = test: Inhibition of fatty acid synthesis in Hordeum vulgare (barley) using [14C]malonate assessed as inhibition of [14C]-labeled 16C fatty acid production at 200 uM after 3 hr by liquid scintillation counting; type: functional, organism-based
Hordeum vulgare [7] = test: Inhibition of fatty acid synthesis in Hordeum vulgare (barley) assessed as inhibition of [14C]malonate incoporation in total fatty acids at 200 uM measured after 3 hr by liquid scintillation counting; type: functional, organism-based
Hordeum vulgare [8] = test: Inhibition of fatty acid synthesis in Hordeum vulgare (barley) using [14C]acetate assessed as [14C]-labeled 20C fatty acid level at 200 uM after 3 hr by liquid scintillation counting (reference value: 4.7 +/- 1.6%); type: functional; set-up: scale not given: the % may be the effect or the level left
Cucumis sativus [9] = test: Inhibition of fatty acid synthesis in Cucumis sativus (cucumber) using [14C]acetate assessed as [14C]-labeled 18C fatty acid level at 200 uM after 3 hr by liquid scintillation counting (reference value: 41.2 +/- 1.1%); type: functional; set-up: scale not given: the % may be the effect or the level left
Hordeum vulgare [10] = test: Inhibition of fatty acid synthesis in Hordeum vulgare (barley) using [14C]malonate assessed as inhibition of [14C]-labeled 24C fatty acid production at 200 uM after 3 hr by liquid scintillation counting; type: functional, organism-based
Hordeum vulgare [11] = test: Inhibition of fatty acid synthesis in Hordeum vulgare (barley) using [14C]acetate assessed as [14C]-labeled 18C fatty acid level at 200 uM after 3 hr by liquid scintillation counting (reference value: 60.3 +/- 1.3%); type: functional; set-up: scale not given: the % may be the effect or the level left
Hordeum vulgare [12] = test: Inhibition of fatty acid synthesis in Hordeum vulgare (barley) using [14C]acetate assessed as [14C]-labeled 16C fatty acid level at 200 uM after 3 hr by liquid scintillation counting (reference value: 29.5 +/- 1.3%); type: functional; set-up: scale not given: the % may be the effect or the level left
Hordeum vulgare [13] = test: Inhibition of fatty acid synthesis in Hordeum vulgare (barley) using [14C]malonate assessed as inhibition of [14C]-labeled 18C fatty acid production at 200 uM after 3 hr by liquid scintillation counting; type: functional, organism-based
Cucumis sativus [14] = test: Inhibition of fatty acid synthesis in Cucumis sativus (cucumber) assessed as inhibition of [14C]malonate incoporation in total fatty acids at 200 uM measured after 3 hr by liquid scintillation counting; type: functional, organism-based
Cucumis sativus [15] = test: Inhibition of fatty acid synthesis in Cucumis sativus (cucumber) using [14C]acetate assessed as [14C]-labeled 22C fatty acid level at 200 uM after 3 hr by liquid scintillation counting (reference value: 17.9 +/- 2.5%); type: functional; set-up: scale not given: the % may be the effect or the level left
Cucumis sativus [16] = test: Inhibition of fatty acid synthesis in Cucumis sativus (cucumber) using [14C]malonate assessed as inhibition of [14C]-labeled 16C fatty acid production at 200 uM after 3 hr by liquid scintillation counting; type: functional, organism-based
Cucumis sativus [17] = test: Inhibition of fatty acid synthesis in Cucumis sativus (cucumber) using [14C]acetate assessed as [14C]-labeled 20C fatty acid level at 200 uM after 3 hr by liquid scintillation counting (reference value: 5.1 +/- 0.7%); type: functional; set-up: scale not given: the % may be the effect or the level left
Cucumis sativus [18] = test: Inhibition of fatty acid synthesis in Cucumis sativus (cucumber) assessed as inhibition of [14C]acetate incoporation in total fatty acids at 200 uM measured as total disintegration per g of fresh weight after 3 hr by liquid scintillation counting (reference value: 6.4 +/- 1.2 dpm x 10^6 g'1 fresh wt); type: functional
Cucumis sativus [19] = test: Inhibition of fatty acid synthesis in Cucumis sativus (cucumber) using [14C]malonate assessed as inhibition of [14C]-labeled 20C fatty acid production at 200 uM after 3 hr by liquid scintillation counting; type: functional, organism-based
Cucumis sativus [20] = test: Inhibition of fatty acid synthesis in Cucumis sativus (cucumber) using [14C]malonate assessed as inhibition of [14C]-labeled 22C fatty acid production at 200 uM after 3 hr by liquid scintillation counting; type: functional, organism-based
Cucumis sativus [21] = test: Inhibition of fatty acid synthesis in Cucumis sativus (cucumber) using [14C]acetate assessed as [14C]-labeled 16C fatty acid level at 200 uM after 3 hr by liquid scintillation counting (reference value: 29.2 +/- 3.5%); type: functional; set-up: scale not given: the % may be the effect or the level left
Hordeum vulgare [22] = test: Inhibition of fatty acid synthesis in Hordeum vulgare (barley) using [14C]acetate assessed as [14C]-labeled 22C fatty acid level at 200 uM after 3 hr by liquid scintillation counting (reference value: 5.5 +/- 0.2%); type: functional; set-up: scale not given: the % may be the effect or the level left
Hordeum vulgare [23] = test: Inhibition of fatty acid synthesis in Hordeum vulgare (barley) assessed as inhibition of [14C]acetate incoporation in total fatty acids at 200 uM measured as total disintegration per g of fresh weight after 3 hr by liquid scintillation counting (reference value: 5.7 +/- 0.5 dpm x 10^6 g'1 fresh wt); type: functional
Hordeum vulgare [24] = test: Inhibition of fatty acid synthesis in Hordeum vulgare (barley) using [14C]acetate assessed as [14C]-labeled 22C fatty acid level at 300 uM after 3 hr by liquid scintillation counting (reference value: 5.5 +/- 0.2%); type: functional; set-up: scale not given: the % may be the effect or the level left
Cucumis sativus [25] = test: Inhibition of fatty acid synthesis in Cucumis sativus (cucumber) using [14C]malonate assessed as inhibition of [14C]-labeled 16C fatty acid production at 300 uM after 3 hr by liquid scintillation counting; type: functional, organism-based
Hordeum vulgare [26] = test: Inhibition of fatty acid synthesis in Hordeum vulgare (barley) using [14C]malonate assessed as inhibition of [14C]-labeled 22C fatty acid production at 300 uM after 3 hr by liquid scintillation counting; type: functional, organism-based
Hordeum vulgare [27] = test: Inhibition of fatty acid synthesis in Hordeum vulgare (barley) using [14C]malonate assessed as inhibition of [14C]-labeled 18C fatty acid production at 300 uM after 3 hr by liquid scintillation counting; type: functional, organism-based
Cucumis sativus [28] = test: Inhibition of fatty acid synthesis in Cucumis sativus (cucumber) using [14C]acetate assessed as [14C]-labeled 18C fatty acid level at 300 uM after 3 hr by liquid scintillation counting (reference value: 41.2 +/- 1.1%); type: functional; set-up: scale not given: the % may be the effect or the level left
Cucumis sativus [29] = test: Inhibition of fatty acid synthesis in Cucumis sativus (cucumber) using [14C]malonate assessed as inhibition of [14C]-labeled 22C fatty acid production at 300 uM after 3 hr by liquid scintillation counting; type: functional, organism-based
Cucumis sativus [30] = test: Inhibition of fatty acid synthesis in Cucumis sativus (cucumber) using [14C]malonate assessed as inhibition of [14C]-labeled 20C fatty acid production at 300 uM after 3 hr by liquid scintillation counting; type: functional, organism-based
Cucumis sativus [31] = test: Inhibition of fatty acid synthesis in Cucumis sativus (cucumber) using [14C]malonate assessed as inhibition of [14C]-labeled 24C fatty acid production at 300 uM after 3 hr by liquid scintillation counting; type: functional, organism-based
Cucumis sativus [32] = test: Inhibition of fatty acid synthesis in Cucumis sativus (cucumber) using [14C]acetate assessed as [14C]-labeled 24C fatty acid level at 300 uM after 3 hr by liquid scintillation counting (reference value: 6.5 +/- 1%); type: functional; set-up: scale not given: the % may be the effect or the level left
Hordeum vulgare [33] = test: Inhibition of fatty acid synthesis in Hordeum vulgare (barley) using [14C]acetate assessed as [14C]-labeled 18C fatty acid level at 300 uM after 3 hr by liquid scintillation counting (reference value: 60.3 +/- 1.3%); type: functional; set-up: scale not given: the % may be the effect or the level left
Hordeum vulgare [34] = test: Inhibition of fatty acid synthesis in Hordeum vulgare (barley) using [14C]malonate assessed as inhibition of [14C]-labeled 16C fatty acid production at 300 uM after 3 hr by liquid scintillation counting; type: functional, organism-based
Cucumis sativus [35] = test: Inhibition of fatty acid synthesis in Cucumis sativus (cucumber) using [14C]acetate assessed as [14C]-labeled 16C fatty acid level at 300 uM after 3 hr by liquid scintillation counting (reference value: 29.2 +/- 3.5%); type: functional; set-up: scale not given: the % may be the effect or the level left
Hordeum vulgare [36] = test: Inhibition of fatty acid synthesis in Hordeum vulgare (barley) using [14C]malonate assessed as inhibition of [14C]-labeled 24C fatty acid production at 300 uM after 3 hr by liquid scintillation counting; type: functional, organism-based
Hordeum vulgare [37] = test: Inhibition of fatty acid synthesis in Hordeum vulgare (barley) using [14C]malonate assessed as inhibition of [14C]-labeled 20C fatty acid production at 300 uM after 3 hr by liquid scintillation counting; type: functional, organism-based
Hordeum vulgare [38] = test: Inhibition of fatty acid synthesis in Hordeum vulgare (barley) assessed as inhibition of [14C]acetate incoporation in total fatty acids at 300 uM measured as total disintegration per g of fresh weight after 3 hr by liquid scintillation counting (reference value: 5.7 +/- 0.5 dpm x 10^6 g'1 fresh wt); type: functional
Cucumis sativus [39] = test: Inhibition of fatty acid synthesis in Cucumis sativus (cucumber) using [14C]malonate assessed as inhibition of [14C]-labeled 18C fatty acid production at 300 uM after 3 hr by liquid scintillation counting; type: functional, organism-based
Hordeum vulgare [40] = test: Inhibition of fatty acid synthesis in Hordeum vulgare (barley) using [14C]acetate assessed as [14C]-labeled 16C fatty acid level at 300 uM after 3 hr by liquid scintillation counting (reference value: 29.5 +/- 1.3%); type: functional; set-up: scale not given: the % may be the effect or the level left
Hordeum vulgare [41] = test: Inhibition of fatty acid synthesis in Hordeum vulgare (barley) using [14C]acetate assessed as [14C]-labeled 20C fatty acid level at 300 uM after 3 hr by liquid scintillation counting (reference value: 4.7 +/- 1.6%); type: functional; set-up: scale not given: the % may be the effect or the level left
Cucumis sativus [42] = test: Inhibition of fatty acid synthesis in Cucumis sativus (cucumber) using [14C]acetate assessed as [14C]-labeled 20C fatty acid level at 300 uM after 3 hr by liquid scintillation counting (reference value: 5.1 +/- 0.7%); type: functional; set-up: scale not given: the % may be the effect or the level left
Cucumis sativus [43] = test: Inhibition of fatty acid synthesis in Cucumis sativus (cucumber) assessed as inhibition of [14C]acetate incoporation in total fatty acids at 300 uM measured as total disintegration per g of fresh weight after 3 hr by liquid scintillation counting (reference value: 6.4 +/- 1.2 dpm x 10^6 g'1 fresh wt); type: functional
Cucumis sativus [44] = test: Inhibition of fatty acid synthesis in Cucumis sativus (cucumber) assessed as inhibition of [14C]malonate incoporation in total fatty acids at 300 uM measured after 3 hr by liquid scintillation counting; type: functional, organism-based
Hordeum vulgare [45] = test: Inhibition of fatty acid synthesis in Hordeum vulgare (barley) assessed as inhibition of [14C]malonate incoporation in total fatty acids at 300 uM measured after 3 hr by liquid scintillation counting; type: functional, organism-based
Cucumis sativus [46] = test: Inhibition of fatty acid synthesis in Cucumis sativus (cucumber) using [14C]acetate assessed as [14C]-labeled 22C fatty acid level at 300 uM after 3 hr by liquid scintillation counting (reference value: 17.9 +/- 2.5%); type: functional; set-up: scale not given: the % may be the effect or the level left

Cc1ccccc1CO[C@H]1C[C@]2(C(C)C)CC[C@@]1(C)O2 (relative stereo) [REL-CINMETHYLIN]
inhibition (Hordeum vulgare [1]): inactive
inhibition (Hordeum vulgare [2]): inactive
inhibition (Cucumis sativus [3]): inactive
Activity (Cucumis sativus [4]): 4.2%
inhibition (Cucumis sativus [5]): inactive
inhibition (Hordeum vulgare [6]): inactive
inhibition (Hordeum vulgare [7]): inactive
Activity (Hordeum vulgare [8]): 5.7%
Activity (Cucumis sativus [9]): 48.6%
inhibition (Hordeum vulgare [10]): inactive
Activity (Hordeum vulgare [11]): 67.7%
Activity (Hordeum vulgare [12]): 20.9%
inhibition (Hordeum vulgare [13]): inactive
inhibition (Cucumis sativus [14]): inactive
Activity (Cucumis sativus [15]): 13.4%
inhibition (Cucumis sativus [16]): inactive
Activity (Cucumis sativus [17]): 4.8%
Activity (Cucumis sativus [18]): 8.4 ×10⁶ dpm
inhibition (Cucumis sativus [19]): inactive
inhibition (Cucumis sativus [20]): inactive
Activity (Cucumis sativus [21]): 28.9%
Activity (Hordeum vulgare [22]): 5.8%
Activity (Hordeum vulgare [23]): 5.1 ×10⁶ dpm

CN(C)C(=O)C(c1ccccc1)c1ccccc1 [DIPHENAMIDE]
Activity (Hordeum vulgare [24]): 7.6%
inhibition (Cucumis sativus [25]): inactive
inhibition (Hordeum vulgare [26]): inactive
inhibition (Hordeum vulgare [27]): inactive
Activity (Cucumis sativus [28]): 48.1%
inhibition (Cucumis sativus [29]): inactive
inhibition (Cucumis sativus [30]): inactive
inhibition (Cucumis sativus [31]): inactive
Activity (Cucumis sativus [32]): 5.1%
Activity (Hordeum vulgare [33]): 66.1%
inhibition (Hordeum vulgare [34]): inactive
Activity (Cucumis sativus [35]): 26.8%
inhibition (Hordeum vulgare [36]): inactive
inhibition (Hordeum vulgare [37]): inactive
Activity (Hordeum vulgare [38]): 4 ×10⁶ dpm
inhibition (Cucumis sativus [39]): inactive
Activity (Hordeum vulgare [40]): 18.4%
Activity (Hordeum vulgare [41]): 7.9%
Activity (Cucumis sativus [42]): 6.1%
Activity (Cucumis sativus [43]): 6.9 ×10⁶ dpm
inhibition (Cucumis sativus [44]): inactive
inhibition (Hordeum vulgare [45]): inactive
Activity (Cucumis sativus [46]): 13.9%
